The values below come from US20050281888A1, “Nutritional supplement for infants” (priority 2004, published 2005).

The structures appear in SMILES notation.

The experiment deals with blood lymphocytes. Put plainly: Zinc dose response: lymphocyte response to mitogen PHA in supplemented infants. The conditions noted are these: for Lymphocyte response to PHA (stimulation index): infants age 4-36 months. It is filed as in vivo, infants (human), age 4-36 months. As for the experimental part:
The basic concept underlying the assessment of the most optimum nutrient amounts for a given age group uses the principle of “dose-response graphs”. At least four groups of individuals were provided with various amounts of a given nutrient and their immune responses were measured using established and accepted techniques. The amount of a nutrient that gave the best response was considered the optimum amount. Dose response graphs were determined for all vitamins and trace elements considered essential for human health, particularly immunity.
Data for the dose response chart for zinc in a group of 4 to 36 month old infants is shown in FIG. 1, with the total amount of zinc taken is shown for each group. To determine the magnitude of immune response, an aliquot of blood was withdrawn from each subject in the study, blood lymphocytes were separated, washed and mixed with the mitogen phytohemagglutinin (PHA) in previously determined optimum amount. The optimum amount of PHA used in the experiments was predetermined by a set of dose response graphs using lymphocytes of a healthy donor and four different concentrations of PHA. After culture in a sterile environment for 72 hours, the cells were washed and mixed with radioactive thymidine. The same steps were undertaken in a control sample in which only the culture medium was used, not PHA. The cells were washed and radioactivity determined.
Dietary intake of zinc was calculated based on three 24-hour recalls and by the food frequency questionnaire methods.

With `[Zn]` [zinc], the “Immune response, conclusion in words” value (3 mg zinc intake in addition to zinc from a balanced diet) was “best immune response”. Further, the “Lymphocyte response to PHA (stimulation index)” value amounted to 58 (supplemental zinc 3 mg), 41 (supplemental zinc 6 mg) and 32 (supplemental zinc 9 mg).
